Reference: the Kinase Knowledgebase extract (Sharma et al. 2016)

Columns and labels:
MAPK14 (human) = MAPK14 (human) (UniProt Q16539); experiment: Inhibition of LPS-Induced TNF-a Production in THP1 Cells
MAPK14 = MAPK14 (UniProt Q16539); experiment: p-38 Kinase Inhibition Assay
[1] = tested on: MAPK14 (sprague-dawley rat); experiment: Inhibition of LPS Induced TNF-alpha Production in Rats; settings: dose or concentration not given here

Chain of MAPK14 (human) (Q16539 whole entry, looked up): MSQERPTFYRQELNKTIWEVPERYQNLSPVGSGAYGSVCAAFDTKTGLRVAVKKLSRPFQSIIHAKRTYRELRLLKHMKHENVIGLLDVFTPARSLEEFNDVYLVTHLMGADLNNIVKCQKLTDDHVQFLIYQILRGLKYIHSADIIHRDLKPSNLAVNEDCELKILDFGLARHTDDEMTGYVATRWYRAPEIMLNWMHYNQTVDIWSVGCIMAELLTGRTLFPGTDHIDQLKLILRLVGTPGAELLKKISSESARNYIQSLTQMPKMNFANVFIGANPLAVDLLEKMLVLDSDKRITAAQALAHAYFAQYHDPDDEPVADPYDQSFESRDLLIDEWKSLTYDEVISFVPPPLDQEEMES
Chain of MAPK14 (Q16539 whole entry, looked up): as above

SMILES | IC50 (MAPK14 (human)) [nM] | IC50 (MAPK14) [nM] | inhibition [1] [%]
Nc1c(C(=O)c2cccc(N3CCC(Cc4ccccc4)CC3)c2)cnn1-c1ccc(F)cc1 | 140 | – | –
Nc1cccc(C(=O)c2cnn(-c3ccc(F)cc3)c2N)c1 | 170 | – | –
Nc1c(C(=O)c2ccc(CCCO)cc2)cnn1-c1ccccc1 | 1770 | – | –
Nc1c(C(=O)c2cccc(/C=C/CN3CCOCC3)c2)cnn1-c1ccc(F)cc1 | 1260 | – | –
Nc1c(C(=O)c2ccc(/C=C/CN3CCOCC3)cc2)cnn1-c1ccc(F)cc1 | 6300 | – | –
NC(=NO)c1cccc(C(=O)c2cnn(-c3ccc(F)cc3)c2N)c1 | 170 | 1450 | 76
CNC(=O)COc1cccc(C(=O)c2cnn(-c3ccc(F)cc3)c2N)c1 | – | – | 75
CN1CCN(CC#Cc2cccc(C(=O)c3cnn(-c4ccc(F)cc4)c3N)c2)CC1 | – | – | 86
Nc1c(C(=O)c2cccc(CCCN3CCOCC3)c2)cnn1-c1ccc(F)cc1 | 1040 | – | –
Nc1c(C(=O)c2cccc(OCCN3CCOCC3)c2)cnn1-c1ccc(F)cc1 | 770 | – | –
CNCC#Cc1cccc(C(=O)c2cnn(-c3ccc(F)cc3)c2N)c1 | – | – | 86
Nc1c(C(=O)c2cccc(CCS(N)(=O)=O)c2)cnn1-c1ccc(F)cc1 | 510 | – | –
Nc1c(C(=O)c2cccc(OCCCN3CCCCC3)c2)cnn1-c1ccc(F)cc1 | 610 | – | –
Nc1c(C(=O)c2cccc(/C=C/S(N)(=O)=O)c2)cnn1-c1ccc(F)cc1 | 1620 | – | –
CN1CCN(C(=O)COc2cccc(C(=O)c3cnn(-c4ccc(F)cc4)c3N)c2)CC1 | 690 | – | –
N#CCCCOc1cccc(C(=O)c2cnn(-c3ccc(F)cc3)c2N)c1 | 830 | – | –
Nc1c(C(=O)c2cccc(C#CCN3CCOCC3)c2)cnn1-c1ccc(F)cc1 | – | – | 96
